Data: patent US3962449A, “Cardioactive bispidones and bispidines” (priority 1974, dated 1976)
Read-outs that look alike come from different tables or passages of the source.

Key:
[1] = system: left auricle of the heart of guinea pigs; assay: Functional refractory period and contractility of the isolated left auricle (paired electrical stimulation, adapted from Govier); format: cell-based, guinea pig; parameters: Anti-arrhythmic effect (Refractory period extension) ED25 / Inotropic effect (Contraction force lowering) ED25: unit not given here; conditions: for Anti-arrhythmic effect (Refractory period extension) ED25: effective dose which extends the refractory period by 25%; for Anti-arrhythmic effect (Refractory period extension) ED25 / Inotropic effect (Contraction force lowering) ED25: guinea pig left auricle, up to 30 minutes; for Inotropic effect (Contraction force lowering) ED25: effective dose which lowers the contractional force by 25%; for Therapeutic Breadth (III/II): ratio of inotropic ED25 to anti-arrhythmic ED25
Description: The experimental procedure utilized paired electrical stimulation in an adaptation of the method of […]. Pharmacol. Exp. […] In this model, the numerous known anti-arrhythmical preparations of differing structure and point of therapeutic attack all show an prolongation of the functional refractory period. The experiment additionally permits a study of the effects of different substances on the contractility of the heart muscles [Reuter und Heeg, Naunyn, Naunyn-Schmiedeberg's Arch. Pharmakol. […] Pharmakol. […] Therefore the experiment is suitable for discovering which substances have the greatest therapeutic range, that is to say, which have the greatest safety margin between the anti-arrhythmic and the negatively inotropically effective dosages. To test the substances, up to 18 and 30 individual experiments were carried out in each case. At least 3 dosages were tested each on 6 auricle preparations and the linear regression functions were calculated[[…] In column II, the […] shown and in column III, the inotropic effect is shown. In column IV, the therapeutic range of the compounds is shown.

[2] = system: experimentally induced heart rhythm disturbances (aconitine) in rats; assay: Aconitine-induced heart rhythm disturbances in rats, intravenous pre-treatment; format: in vivo, rat; conditions: for ED25 / ED50: Rattus norvegicus, iv; for occurrence of heart rhythm disturbances on pre-treatment: aconitine continuously infused intravenously
Description: If rats are continuously infused intravenously with aconitine, then serious disturbances of the cardiac rhythm such as extrasystole, ventricular tachycardia, and ventricular flutter, which finally lead to the death of the experimental animals, can be observed on an electrocardiogram. […] This experimental arrhythmic model is checked by means of clinically tested standard therapeutic compounds as to its reliability and is well suited for characterizing antiarrhythmical compounds in experiments on animals [cf. for example, Bianci et al., Arzneim.-Forsch. 18, 845- 850 (1968); Haas und Busch, Arzneim.-Forsch. 18, 401- 407 (1968); Haas et al., Arzneim.-Forsch.21, 1392- 1399 (1971); Marmo, Naunyn-Schmiedeberg's Arch. Pharmakol. 269, 231- 247 (1971); and Strubelt et al., Naunyn-Schmiedeberg's Arch. Pharmakol. 271, 346- 360 (1971.]
The ED25 or ED50 are the intravenous dosages in mg/kg which allow an increase in administered aconitine doses, relative to the control, by 25 or 50%, respectively, before the occurrence of extrasystoles, ventricular tachycardia, and ventricular flutter.

[3] = difference between doses producing an anti-arrhythmic effect and a negative inotropic effect; cited from earlier work
[4] = read-out: Ventricular Tachycardia ED25
[5] = read-out: Ventricular Tachycardia ED50
[6] = read-out: Ventricular flutter ED25
[7] = read-out: Ventricular flutter ED50

SMILES	Anti-arrhythmic effect (Refractory period extension) ED25 [1]	Inotropic effect (Contraction force lowering) ED25 [1]	Therapeutic Breadth (III/II) [1]	ED25 ([2]; read-out: Extrasystoles ED25)	ED50 ([2]; read-out: Extrasystoles ED50)	ED25 [2, 4]	ED50 [2, 5]	ED25 [2, 6]	ED50 [2, 7]	occurrence of heart rhythm disturbances on pre-treatment ([2]; rats)	therapeutic range [3]	Extrasystoles ED25 ([2]; intravenous, dose allowing 25% increase in aconitine dose relative to control before extrasystoles, rats)	Ventricular flutter ED25 ([2]; intravenous, dose allowing 25% increase in aconitine dose relative to control before ventricular flutter, rats)	Extrasystoles ED50 ([2]; intravenous, dose allowing 50% increase in aconitine dose relative to control before extrasystoles, rats)	Ventricular flutter ED50 ([2]; intravenous, dose allowing 50% increase in aconitine dose relative to control before ventricular flutter, rats)
c1ccc(CN2CC3CC(C2)CN(Cc2ccccc2)C3)cc1 [N,N'-dibenzyl-bispidine, N,N'-dibenzylbispidine]	0.034	0.07	2.0	1.06 mg/kg	1.76 mg/kg	0.87 mg/kg	1.23 mg/kg	1.03 mg/kg	1.48 mg/kg	prevented or at least substantially delayed					
c1ccc(CN(CC2=NCCN2)c2ccccc2)cc1 [Antazolin]	0.164	0.094	0.6								narrow therapeutic range				
C1CCN2CC3CC(CN4CCCCC34)C2C1 (single isomer, unassigned) [Spartein, reference compound]						4.43 mg/kg	9.55 mg/kg					+)	+)	+)	+)
CC(C)N1CC2CC(CN(CCc3ccccc3)C2)C1 [N-isopropyl-N'-β-phenylethyl-bispidine]	0.13	0.26	2.0	~1.8 mg/kg	~2.3 mg/kg	1.41 mg/kg	2.13 mg/kg	1.7 mg/kg	2.47 mg/kg	prevented or at least substantially delayed					
CCC[N+]12[C@H](O)[C@@H](CC)[C@@H]3C[C@H]1[C@@H]1N(C)c4ccccc4[C@]14C[C@H]2[C@@H]3[C@H]4O [N-n-propylajmalin]	0.0037	0.0015	0.4												
CCN(CC)CC(=O)Nc1c(C)cccc1C [Lidocain]	0.47	0.48	1.0								narrow therapeutic range				
